Here are results for three compounds from the NIST ThermoML archive (doi:10.1016/j.fluid.2015.07.037).

For series [1] the following is noted: Crystal; DTA.
The nature of series [2]: Molar enthalpy of transition or fusion. The conditions noted are these: Crystal; DSC.

Numbers after ± are expanded uncertainties.

In the case of `CC(C)NCC(O)c1ccc(O)c(O)c1.Cl` (stereo unspecified), the Normal melting temperature in series [1] worked out at 170.22 ± 0.41 °C. Also, in series [2], the “Molar enthalpy of transition or fusion” value stood at 19.1 ± 0.382 kcal/mol.

Turning to `C[C@H](N)[C@H](O)c1cccc(O)c1.O=C(O)[C@H](O)[C@@H](O)C(=O)O`, the Normal melting temperature in series [1] stood at 179.54 ± 0.41 °C. In series [2], the “Molar enthalpy of transition or fusion” value came to 18.5 ± 0.382 kcal/mol.

With `CNCC(O)c1ccc(O)cc1` (stereo unspecified) [synephrine], the Normal melting temperature in series [1] amounted to 190.38 ± 0.41 °C. Further, in series [2], the “Molar enthalpy of transition or fusion” value was determined as 23.8 ± 0.478 kcal/mol.
